Entries after “also recorded” stand apart in the source; their conditions may differ.
How the values were obtained:
Format in all cases: binding
[1] = molecular target: T1, S100A3 (Homo sapiens, UniProt P33764); assay: direct fluorescence polarization (FP), S100A3; conditions: S100A3, 50 nM labeled foldamer, 20 mM HEPES pH 7.5, 150 mM NaCl, 1 mM CaCl2, 0.5 mM TCEP, 0.01% Tween20, quadratic fit, mean ± SEM, three technical repeats, threshold 1 mM
T1 sequence (P33764 1-101): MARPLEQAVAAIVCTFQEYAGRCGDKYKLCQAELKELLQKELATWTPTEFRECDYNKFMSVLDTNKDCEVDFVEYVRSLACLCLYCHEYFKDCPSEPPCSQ
Procedure: (§1) HTP (and also low-throughput) measurements generally need to be validated by an orthogonal approach to eliminate experimental artifacts. […] This way, we chose WL, IF, WW, YF, IL, VL, TW, RF, RR, TI, TM, and after resynthesizing with a fluorescent label at the C-terminus (Figs. S15–S26, Table S1), the S100ome was tested against the labeled foldamers by direct fluorescence polarization (FP) (Fig. 3A). In this assay, the association of the fluorescently labeled foldamer and the S100 protein of interest is monitored, through the change in polarization of the emitted light by the fluorophore upon the binding event. In direct FP, the presence of the fluorophore might change the binding affinity of some foldamers. […] Nevertheless, we assumed that the fluorophore would affect all foldamers that target the same binding site to the same degree, because the foldamer scaffold is rigid. Defining the threshold of detection at the dissociation constant of 1 mM, we identified 87 interactions between the selected foldamer fragments and the S100ome out of 220 possible interactions (Table 1, Fig. S4-14).
(§2) Briefly, S100 proteins were cloned into a modified pET15b vector with a TEV protease cleavable N-terminal His6-tag and expressed in Escherichia coli BL21 (DE3) cells, followed by Ni^2+-affinity chromatography. For HU assay, S100 proteins were further purified by either hydrophobic interaction chromatography or ion exchange chromatography without the cleavage of the N-terminal His6-tag applying standard conditions. For direct FP measurements, the N-terminal His6-tag was cleaved, and the S100 proteins were purified by hydrophobic interaction chromatography, ion exchange chromatography or size exclusion chromatography. The quality of the recombinant proteins was checked by SDS-PAGE analysis in all cases. The concentration of the recombinant S100 proteins was determined by UV spectrophotometry using the absorbance of Tyr and Trp residues.
(§3) In direct fluorescence polarization assays, S100 proteins were diluted in a buffer containing 50 nM labeled foldamer, 20 mM HEPES pH 7.5, 150 mM NaCl, 1 mM CaCl2, 0.5 mM TCEP and 0.01% Tween20. The dilution series (50 µl) were divided into three technical repeats and transferred (15 µl) to a 384-well microplate. In competitive fluorescence polarization assays, the buffer applied in direct measurements was supplemented with the S100 protein of interest to reach a saturation of 60–80%. This mixture was titrated with the competitor (i.e. the unlabeled peptide). Fluorescence polarization was measured in 8 different S100 concentrations (one of which contained no S100 protein) on a Synergy H4 plate reader using 485 ± 20 nm and 528 ± 20 nm band-pass filters for excitation and emission, respectively. The Kd values were obtained by fitting the data from the FP measurements with the python-based ProFit software using quadratic and competitive binding equation for direct and competitive FP, respectively. The detection threshold was based on two parameters. First, we rejected all fitted dissociation constants above 1 mM.

[2] = molecular target: T2, S100A5 (Homo sapiens, UniProt P33763); assay: direct fluorescence polarization (FP), S100A5; conditions: for binding to S100A5 in the absence of Ca2+: Fig. 3C middle panels, direct FP in the presence of EDTA; for Kd: direct FP, S100A5, 50 nM labeled foldamer, 20 mM HEPES pH 7.5, 150 mM NaCl, 1 mM CaCl2, 0.5 mM TCEP, 0.01% Tween20, quadratic fit, mean ± SEM, three technical repeats, threshold 1 mM
T2 sequence (P33763 1-92): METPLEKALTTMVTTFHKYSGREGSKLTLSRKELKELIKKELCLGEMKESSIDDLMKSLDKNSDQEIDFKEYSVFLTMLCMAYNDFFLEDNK
Procedure: as §1
To ensure that foldamer fragments bind to the hydrophobic binding groove of S100 proteins, which opens upon binding of calcium ions, we performed FP experiments on a selected S100 protein, S100A5, in the presence of EDTA and TRTK12, an S100-binding peptide of 12 amino acids. […] Based on the similarity and redundancy among the S100 family, it can be assumed that all S100 proteins bind the members of the H14 foldamer library through their hydrophobic binding pocket in a Ca^2+-dependent manner.
as §2, §3

[3] = molecular target: S100A10 (Homo sapiens, UniProt P60903); assay: direct fluorescence polarization (FP), S100A10; conditions: S100A10, 50 nM labeled foldamer, 20 mM HEPES pH 7.5, 150 mM NaCl, 1 mM CaCl2, 0.5 mM TCEP, 0.01% Tween20, quadratic fit, mean ± SEM, three technical repeats, threshold 1 mM
Sequence of S100A10 (P60903 whole entry): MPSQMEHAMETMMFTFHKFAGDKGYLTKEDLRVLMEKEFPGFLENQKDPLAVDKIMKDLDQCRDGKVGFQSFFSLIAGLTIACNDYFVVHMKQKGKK
From the text: (§4) HTP (and also low-throughput) measurements generally need to be validated by an orthogonal approach to eliminate experimental artifacts. […] In this assay, the association of the fluorescently labeled foldamer and the S100 protein of interest is monitored, through the change in polarization of the emitted light by the fluorophore upon the binding event. In direct FP, the presence of the fluorophore might change the binding affinity of some foldamers. […] Nevertheless, we assumed that the fluorophore would affect all foldamers that target the same binding site to the same degree, because the foldamer scaffold is rigid.
as §2, §3

[4] = molecular target: T3, S100A11 (Homo sapiens, UniProt P31949); assay: direct fluorescence polarization (FP), S100A11; conditions: S100A11, 50 nM labeled foldamer, 20 mM HEPES pH 7.5, 150 mM NaCl, 1 mM CaCl2, 0.5 mM TCEP, 0.01% Tween20, quadratic fit, mean ± SEM, three technical repeats, threshold 1 mM
T3 sequence (P31949 1-105): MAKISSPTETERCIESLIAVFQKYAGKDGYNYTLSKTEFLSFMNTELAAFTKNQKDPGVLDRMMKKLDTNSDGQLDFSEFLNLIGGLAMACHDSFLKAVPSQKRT
Procedure: as §1, §2, §3

[5] = molecular target: T4, S100G (Homo sapiens, UniProt P29377); assay: direct fluorescence polarization (FP), S100G; conditions: 50 nM labeled foldamer, 20 mM HEPES pH 7.5, 150 mM NaCl, 1 mM CaCl2, 0.5 mM TCEP, 0.01% Tween20, quadratic fit, mean ± SEM, three technical repeats, threshold 1 mM
T4 sequence (P29377 2-79): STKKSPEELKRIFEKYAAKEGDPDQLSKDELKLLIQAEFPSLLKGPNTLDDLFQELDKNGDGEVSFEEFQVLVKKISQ
Procedure: as §1, §2, §3

[6] = molecular target: T5, S100P (Homo sapiens, UniProt P25815); assay: direct fluorescence polarization (FP), S100P; conditions: 50 nM labeled foldamer, 20 mM HEPES pH 7.5, 150 mM NaCl, 1 mM CaCl2, 0.5 mM TCEP, 0.01% Tween20, quadratic fit, mean ± SEM, three technical repeats, threshold 1 mM
T5 sequence (P25815 1-95): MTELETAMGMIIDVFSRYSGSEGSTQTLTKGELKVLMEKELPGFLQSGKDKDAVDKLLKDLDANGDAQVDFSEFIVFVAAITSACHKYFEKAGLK
From the text: as §4, §2, §3

[7] = molecular target: S100A6 (Homo sapiens, UniProt P06703); assay: direct fluorescence polarization (FP), S100A6
From the text: as §4, §2, §3

Row | Structure (SMILES) | Kd [1] | binding to S100A5 in the absence of Ca2+ [2] | Kd [2] | Kd [3] | Kd [4] | Kd [5] | Kd [6] | Kd [7]
1 | CC[C@H](C)[C@@H](CC(=O)N[C@H]1CCCC[C@@H]1C(=O)N[C@H]1CCCC[C@@H]1C(=O)N[C@H](CC(=O)N[C@H]1CCCC[C@@H]1C(=O)NCC(=O)N[C@@H](CCCCNC(=O)c1ccc2c(c1)C1(OC2=O)c2ccc(O)cc2Oc2cc(O)ccc21)C(N)=O)Cc1ccccc1)NC(=O)[C@H]1CCCC[C@@H]1N [fIF] | 180 ± 8.4 µM | loss of binding event; also recorded: unable to interact | 27 ± 0.53 µM | 97 ± 2.5 µM | 280 ± 15 µM | > 1000 µM | 140 ± 5.8 µM | –
2 | CC[C@H](C)[C@@H](CC(=O)N[C@H]1CCCC[C@@H]1C(=O)N[C@H]1CCCC[C@@H]1C(=O)N[C@H](CC(=O)N[C@H]1CCCC[C@@H]1C(=O)NCC(=O)N[C@@H](CCCCNC(=O)c1ccc2c(c1)C1(OC2=O)c2ccc(O)cc2Oc2cc(O)ccc21)C(N)=O)CC(C)C)NC(=O)[C@H]1CCCC[C@@H]1N [fIL] | > 1000 µM | – | 75 ± 3.6 µM | 72 ± 1.6 µM | > 1000 µM | > 1000 µM | 330 ± 92 µM | –
3 | N=C(N)NCCC[C@@H](CC(=O)N[C@H]1CCCC[C@@H]1C(=O)N[C@H]1CCCC[C@@H]1C(=O)N[C@H](CC(=O)N[C@H]1CCCC[C@@H]1C(=O)NCC(=O)N[C@@H](CCCCNC(=O)c1ccc2c(c1)C1(OC2=O)c2ccc(O)cc2Oc2cc(O)ccc21)C(N)=O)Cc1ccccc1)NC(=O)[C@H]1CCCC[C@@H]1N [fRF] | > 1000 µM | – | 46 ± 1.2 µM | 320 ± 19 µM | 998 ± 217 µM | > 1000 µM | 190 ± 17 µM | –
4 | N=C(N)NCCC[C@@H](CC(=O)N[C@H]1CCCC[C@@H]1C(=O)NCC(=O)N[C@@H](CCCCNC(=O)c1ccc2c(c1)C1(OC2=O)c2ccc(O)cc2Oc2cc(O)ccc21)C(N)=O)NC(=O)[C@H]1CCCC[C@@H]1NC(=O)[C@H]1CCCC[C@@H]1NC(=O)C[C@H](CCCNC(=N)N)NC(=O)[C@H]1CCCC[C@@H]1N [fRR] | > 1000 µM | – | 45 ± 0.81 µM | > 1000 µM | > 1000 µM | > 1000 µM | > 1000 µM | > 1000 µM
5 | CC[C@H](C)[C@@H](CC(=O)N[C@H]1CCCC[C@@H]1C(=O)NCC(=O)N[C@@H](CCCCNC(=O)c1ccc2c(c1)C1(OC2=O)c2ccc(O)cc2Oc2cc(O)ccc21)C(N)=O)NC(=O)[C@H]1CCCC[C@@H]1NC(=O)[C@H]1CCCC[C@@H]1NC(=O)C[C@@H](NC(=O)[C@H]1CCCC[C@@H]1N)[C@@H](C)O [fTI] | > 1000 µM | – | 270 ± 14 µM | > 1000 µM | > 1000 µM | > 1000 µM | > 1000 µM | 699 ± 63 µM
6 | CSCC[C@@H](CC(=O)N[C@H]1CCCC[C@@H]1C(=O)NCC(=O)N[C@@H](CCCCNC(=O)c1ccc2c(c1)C1(OC2=O)c2ccc(O)cc2Oc2cc(O)ccc21)C(N)=O)NC(=O)[C@H]1CCCC[C@@H]1NC(=O)[C@H]1CCCC[C@@H]1NC(=O)C[C@@H](NC(=O)[C@H]1CCCC[C@@H]1N)[C@@H](C)O [fTM] | > 1000 µM | – | 204 ± 9.2 µM | > 1000 µM | > 1000 µM | > 1000 µM | > 1000 µM | 517 ± 57 µM
7 | C[C@@H](O)[C@@H](CC(=O)N[C@H]1CCCC[C@@H]1C(=O)N[C@H]1CCCC[C@@H]1C(=O)N[C@H](CC(=O)N[C@H]1CCCC[C@@H]1C(=O)NCC(=O)N[C@@H](CCCCNC(=O)c1ccc2c(c1)C1(OC2=O)c2ccc(O)cc2Oc2cc(O)ccc21)C(N)=O)Cc1c[nH]c2ccccc12)NC(=O)[C@H]1CCCC[C@@H]1N [fTW] | > 1000 µM | – | 62 ± 1.4 µM | – | 570 ± 68 µM | > 1000 µM | – | –
8 | CC(C)C[C@@H](CC(=O)N[C@H]1CCCC[C@@H]1C(=O)NCC(=O)N[C@@H](CCCCNC(=O)c1ccc2c(c1)C1(OC2=O)c2ccc(O)cc2Oc2cc(O)ccc21)C(N)=O)NC(=O)[C@H]1CCCC[C@@H]1NC(=O)[C@H]1CCCC[C@@H]1NC(=O)C[C@@H](NC(=O)[C@H]1CCCC[C@@H]1N)C(C)C [fVL] | > 1000 µM | – | 110 ± 5.4 µM | 110 ± 5.5 µM | > 1000 µM | > 1000 µM | > 1000 µM | –
9 | CC(C)C[C@@H](CC(=O)N[C@H]1CCCC[C@@H]1C(=O)NCC(=O)N[C@@H](CCCCNC(=O)c1ccc2c(c1)C1(OC2=O)c2ccc(O)cc2Oc2cc(O)ccc21)C(N)=O)NC(=O)[C@H]1CCCC[C@@H]1NC(=O)[C@H]1CCCC[C@@H]1NC(=O)C[C@H](Cc1c[nH]c2ccccc12)NC(=O)[C@H]1CCCC[C@@H]1N [fWL] | > 1000 µM | loss of binding event; also recorded: unable to interact | 14 ± 0.55 µM | 23 ± 0.7 µM | > 1000 µM | > 1000 µM | 75 ± 5.8 µM | 30 ± 1.7 µM
10 | NC(=O)[C@H](CCCCNC(=O)c1ccc2c(c1)C1(OC2=O)c2ccc(O)cc2Oc2cc(O)ccc21)NC(=O)CNC(=O)[C@H]1CCCC[C@@H]1NC(=O)C[C@H](Cc1c[nH]c2ccccc12)NC(=O)[C@H]1CCCC[C@@H]1NC(=O)[C@H]1CCCC[C@@H]1NC(=O)C[C@H](Cc1c[nH]c2ccccc12)NC(=O)[C@H]1CCCC[C@@H]1N [fWW] | 310 ± 21 µM | – | 77 ± 2.8 µM | 150 ± 5.2 µM | > 1000 µM | > 1000 µM | 190 ± 6.9 µM | 100 ± 3.2 µM
11 | NC(=O)[C@H](CCCCNC(=O)c1ccc2c(c1)C1(OC2=O)c2ccc(O)cc2Oc2cc(O)ccc21)NC(=O)CNC(=O)[C@H]1CCCC[C@@H]1NC(=O)C[C@H](Cc1ccccc1)NC(=O)[C@H]1CCCC[C@@H]1NC(=O)[C@H]1CCCC[C@@H]1NC(=O)C[C@H](Cc1ccc(O)cc1)NC(=O)[C@H]1CCCC[C@@H]1N [fYF] | > 1000 µM | – | 32 ± 1 µM | 70 ± 3.5 µM | > 1000 µM | > 1000 µM | 79 ± 5.7 µM | –
